What was measured:
[1] = collision cross section (TIMS, N2 drift gas) of the primary ion; higher = larger gas-phase ion size
[2] = reversed-phase LC retention time (C18, 15 min MeOH gradient); higher = more hydrophobic / later elution
[3] = ionization mode: ESI+, ion species: [M+H]+
[4] = ionization mode: ESI-, ion species: [M-H]-
[5] = ionization mode: ESI+, ion species: [M]+

collision cross section [1, 3] [Å²]	collision cross section [1, 4] [Å²]	reversed-phase LC retention time [2, 3] [min]	reversed-phase LC retention time [2, 4] [min]	collision cross section [1, 5] [Å²]	reversed-phase LC retention time [2, 5] [min]	Compound
169.12	165.1	9.53	6.92			CC(=O)Nc1ccc(S(=O)(=O)Nc2cc(C)on2)cc1 [Acetylsulfamethoxazole]
132.33		8.73				c1ccc2nc3ccccc3cc2c1 [Acridine]
136.53		11.1				O=c1c2ccccc2[nH]c2ccccc12 [Acridone]
148.26	146.78	3.16	3.13			Nc1nc2c(ncn2COCCO)c(=O)[nH]1 [Acyclovir]
165.21	165.62	13.1	14.2			CCCSc1ccc2[nH]c(NC(=O)OC)nc2c1 [Albendazole]
204.03	182.17	16.5	11.9			C[C@]12CCC(=O)C=C1CC[C@@H]1[C@@H]2[C@@H](O)C[C@]2(C=O)[C@@H](C(=O)CO)CC[C@@H]12 [Aldosterone]
138.51		8.82				NC12CC3CC(CC(C3)C1)C2 [Amantadine]
217.58		15.6				CC(=O)OCC(=O)[C@@]12OC3(CCCC3)O[C@@H]1C[C@H]1[C@@H]3CCC4=CC(=O)C=C[C@]4(C)[C@@]3(F)[C@@H](O)C[C@@]12C [Amcinonide]
				217.87	16.9	CCCCCCCCCCCCCC(=O)NCCC[N+](C)(C)CCCS(=O)(=O)O [Amidosulfobetaine-14]
175.88	179.05	12.1	8.09			COc1cc(OC)nc(NC(=O)NS(=O)(=O)N(C)S(C)(=O)=O)n1 [Amidosulfuron]
149.53		6.27				NC(N)=NC(=O)c1nc(Cl)c(N)nc1N [Amiloride]
173.06	169.52	15.4	13.2			Nc1ccc(Oc2ccc(Cl)cc2Cl)cc1C(=O)O [Aminobifenox acid]
228.68		16.5				CCCCc1oc2ccccc2c1C(=O)c1cc(I)c(OCCN(CC)CC)c(I)c1 [Amiodarone]
193.4		7.75				CCN1CCCC1CNC(=O)c1cc(S(=O)(=O)CC)c(N)cc1OC (stereo not given) [Amisulpride]
167.84		13.1				CN(C)CCC=C1c2ccccc2CCc2ccccc21 [Amitriptyline]
185.09		11.3				CC(C)(C#N)c1cc(Cn2cncn2)cc(C(C)(C)C#N)c1 [Anastrozole]
232.7	224.84	10.3	10.1			O=c1cc(-c2ccc(O)cc2)oc2cc(O[C@@H]3O[C@H](CO)[C@@H](O)[C@H](O)[C@H]3O[C@@H]3OC[C@](O)(CO)[C@H]3O)cc(O)c12 [Apiin]
157.6		6.24				CC(C)NCC(O)COc1ccc(CC(N)=O)cc1 (stereo not given) [Atenolol]
232.51	228.86	15.1	14.6			CC(C)c1c(C(=O)Nc2ccccc2)c(-c2ccccc2)c(-c2ccc(F)cc2)n1CCC(O)CC(O)CC(=O)O (stereo not given) [Atorvastatin]
138.83		9.74				CC(C)Nc1nc(N)nc(Cl)n1 [Atrazine desethyl]
132.48		8.1				CCNc1nc(N)nc(Cl)n1 [Atrazine desisopropyl]
	138.44		0.98			O=C(O)CCCCCCCC(=O)O [Azelaic acid]
189.23		12.7				CN1CCCC(n2nc(Cc3ccc(Cl)cc3)c3ccccc3c2=O)CC1 (stereo not given) [Azelastine]

collision cross section [1, 3] [Å²]	collision cross section [1, 4] [Å²]	reversed-phase LC retention time [2, 3] [min]	reversed-phase LC retention time [2, 4] [min]	collision cross section [1, 5] [Å²]	reversed-phase LC retention time [2, 5] [min]	Compound
264.86		10.9				CCC1OC(=O)C(C)C(OC2CC(C)(OC)C(O)C(C)O2)C(C)C(OC2OC(C)CC(N(C)C)C2O)C(C)(O)CC(C)CN(C)C(C)C(O)C1(C)O (stereo not given) [Azithromycin]
190.75	188.36	13	11.5			CO/C=C(/C(=O)O)c1ccccc1Oc1cc(Oc2ccccc2C#N)ncn1 [Azoxystrobin acid]
				195.62	12.1	CCN(CCO)c1ccc(N=Nc2sc3cc(OC)ccc3[n+]2C)cc1 [Basic Blue 41]
	223.83		16.5			CCC(=O)OCC(=O)[C@@]1(OC(=O)CC)[C@@H](C)C[C@H]2[C@@H]3CCC4=CC(=O)C=C[C@]4(C)[C@@]3(Cl)[C@@H](O)C[C@@]21C [Beclometasone dipropionate]
192.43	194.28	13.3	13.6			C[C@H]1C[C@H]2[C@@H]3CCC4=CC(=O)C=C[C@]4(C)[C@@]3(Cl)[C@@H](O)C[C@]2(C)[C@@]1(O)C(=O)CO [Beclomethasone]
	125.05		2.42			O=S(=O)(O)c1ccccc1 [Benzenesulfonic acid]
				211.12	16.3	CC(C)(C)CC(C)(C)c1ccc(OCCOCC[N+](C)(C)Cc2ccccc2)cc1 [Benzethonium]
119.54		4.16				c1ccc2[nH]cnc2c1 [Benzimidazole]
148.22		15.1				COc1ccc(C(=O)c2ccccc2)c(O)c1 [Benzophenone-3]
	168.24		9.83			COc1cc(O)c(C(=O)c2ccccc2)cc1S(=O)(=O)O [Benzophenone-4]
119.49		7.82				c1ccc2[nH]nnc2c1 [Benzotriazole]
				183.77	14.7	CCCCCCCCCC[N+](C)(C)Cc1ccccc1 [Benzyldimethyldecylammonium]
				196.05	16	CCCCCCCCCCCC[N+](C)(C)Cc1ccccc1 [Benzyldimethyldodecylammonium]
				213.31	17.8	CCCCCCCCCCCCCCCC[N+](C)(C)Cc1ccccc1 [Benzyldimethylhexadecylammonium]
				204.79	17	CCCCCCCCCCCCCC[N+](C)(C)Cc1ccccc1 [Benzyldimethyltetradecylammonium]
220.81	216.67	15.7	16.2			CCC(=O)OCC(=O)C1(OC(=O)CC)C(C)CC2C3CCC4=CC(=O)C=CC4(C)C3(F)C(O)CC21C (stereo not given) [Betamethasone dipropionate]
216.68	216.5	15.5	16			CCCCC(=O)O[C@]1(C(=O)CO)[C@@H](C)C[C@H]2[C@@H]3CCC4=CC(=O)C=C[C@]4(C)[C@@]3(F)[C@@H](O)C[C@@]21C [Betamethasone-17-valerate]
179.03	181.16	14	12.3			CC(C)(Oc1ccc(CCNC(=O)c2ccc(Cl)cc2)cc1)C(=O)O [Bezafibrate]
	177.92		13.1			O=C(O)c1cc(Oc2ccc(Cl)cc2Cl)ccc1[N+](=O)[O-] [Bifenox free acid]
	166.25		12.9			COc1ccc(-c2coc3cc(O)cc(O)c3c2=O)cc1 [Biochanin A]
225.08		11.8				CC1(C)CC(OC(=O)CCCCCCCCC(=O)OC2CC(C)(C)NC(C)(C)C2)CC(C)(C)N1 [Bis(2,2,6,6-tetramethyl-4-piperidyl)sebacate]
223.46	188.09	19.8	17.1			CCCCC(CC)COP(=O)(O)OCC(CC)CCCC (stereo not given) [Bis(2-ethylhexyl)phosphate]
191.63		11				CC(C)NCC(O)COc1ccc(COCCOC(C)C)cc1 (stereo not given) [Bisoprolol]

Compound	collision cross section [1, 3] [Å²]	collision cross section [1, 4] [Å²]	reversed-phase LC retention time [2, 3] [min]	reversed-phase LC retention time [2, 4] [min]	collision cross section [1, 5] [Å²]	reversed-phase LC retention time [2, 5] [min]
COc1cc2c(c3oc(=O)c4c(c13)CCC4=O)C1C=COC1O2 (stereo not given) [Aflatoxin B1]	165.23		11.4			
CCNc1nc(NC(C)C)nc(SC)n1 [Ametryne]	155.28		12.8			
CCNc1nc(Cl)nc(NC(C)C)n1 [Atrazine]	148.84		12.8			
c1ccc(/N=N/c2ccccc2)cc1 [Azobenzene]	138.4		13.1			
COC=C(C(=O)OC)c1ccccc1Oc1cc(Oc2ccccc2C#N)ncn1 [Azoxystrobin]	196.56		13.8			
COC(=O)[C@H](C)N(C(=O)Cc1ccccc1)c1c(C)cccc1C [Benalaxyl]	173.08		15.6			
CC(C)N1C(=O)c2ccccc2NS1(=O)=O [Bentazone]		145.72		7.56		
Nc1ccc(-c2ccc(N)cc2)cc1 [Benzidine]	155.46		3.98			
CCCCOC(=O)c1ccccc1C(=O)OCc1ccccc1 [Benzylbutylphthalate]	178.47		16.3			
C[N+](C)(C)Cc1ccccc1 [Benzyltrimethylammonium]					129.9	5.04
CC(O)(CS(=O)(=O)c1ccc(F)cc1)C(=O)Nc1ccc(C#N)c(C(F)(F)F)c1 (stereo not given) [Bicalutamide]	205.43	184.69	13.4	13.7		
CCCCC(CC)COC(=O)c1ccccc1C(=O)OCC(CC)CCCC (stereo not given) [Bis(2-ethylhexyl)phthalate]	212.9		19.1			
CC(C)(c1ccc(OCC(O)CCl)cc1)c1ccc(OCC(O)CCl)cc1 (stereo not given) [Bisphenol A bis(3-chloro-2-hydroxypropyl) ether]	194.74		14.2			
Oc1ccc(C(c2ccc(O)cc2)(C(F)(F)F)C(F)(F)F)cc1 [Bisphenol AF]		165.55		14.8		

— the supplement of paper PMC12613149
